Experiments:
ULK1 kinase = target: T1, ULK1 kinase (Homo sapiens, UniProt O75385, E37A/K38A); assay: Biochemical assay for ULK1.3 (coupled pyruvate kinase/lactate dehydrogenase assay, peptide substrate); conditions: 0.1 nM ULK1 (residues 1-283), 1 mM ATP
T1 construct: purchased Beryllium
T1 sequence (O75385 1-283 E37A/K38A): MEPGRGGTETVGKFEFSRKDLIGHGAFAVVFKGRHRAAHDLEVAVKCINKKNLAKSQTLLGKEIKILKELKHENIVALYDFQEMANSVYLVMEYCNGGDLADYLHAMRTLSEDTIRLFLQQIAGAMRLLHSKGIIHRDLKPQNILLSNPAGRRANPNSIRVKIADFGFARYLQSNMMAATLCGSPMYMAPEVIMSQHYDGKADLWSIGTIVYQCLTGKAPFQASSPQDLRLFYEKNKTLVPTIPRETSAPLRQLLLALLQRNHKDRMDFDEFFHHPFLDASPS
In short: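 ULK1.3 activity was followed by continuous decrease in 340 nm absorbance over 6 h at 30 °C with 1% DMSO final. Rates were taken from the 2–3 h window and converted to percent inhibition against no-compound and known-inhibitor controls. IC50 values came from curve fitting.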

ULK kinase [1] = assay: pATG13 levels of mutant BRAF A375 cells after treatment with ULK inhibitors in combination with trametinib (ELISA); format: cell-based, human; conditions: A375 malignant melanoma cells (mutant BRAF), 250 nM trametinib, overnight, pS318-ATG13
Procedure: A375 human malignant melanoma cancer cells (20000 cells/well) were added to a 96-well tissue-culture treated plate in 100 μL of pre-warmed DMEM medium supplemented with 10% characterized fetal bovine serum (Invitrogen, Carlsbad, Calif.), 100 units/mL penicillin G, and 100 μg/mL streptomycin and allowed to grow overnight at 37° C., 5% CO2, and 95% humidity. The following day, 100 μL of media containing trametinib or DMSO as a control was added to wells. […] A dose response of a test compound (0.5 μL per well) was added. DMSO (0.5 μL) was added to control wells. The plate was briefly shaken to mix wells and then incubated at 37° C. overnight. The next day, the media was aspirated and cells were washed with Dulbecco's Phosphate Buffered Saline (Gibco). Cells were lysed using MPER lysis buffer (Pierce, Rockford, Ill.) containing Halt Phosphatase and Protease Inhibitors (Pierce, Rockford, Ill.) and Phosphatase inhibitor cocktail 2 (Sigma, St. Louis, Mo.) at 4° C. for 10 minutes with shaking.
(§1) Plate wells were washed with ELISA wash buffer. Cell lysate was added to wells and incubated at room temperature for 2 hours. Plate wells were washed with ELISA wash buffer. […] Plate wells were washed with ELISA wash buffer. […] Plate wells were washed with ELISA wash buffer. […] The reaction was stopped with 2N Sulfuric Acid. The plate was analyzed at on a plate reader measuring absorbance at 450 nm and 540 nm (background). Signal was calculated by first subtracting the background absorbance at 540 nm from the absorbance at 450 nm for each well. Next, the background corrected absorbance at 450 nm from blank wells was subtracted from test wells. Data was compared to control wells to determine % ATG13 phosphorylation. GraphPad Prism was used to calculate IC50 values.

ULK kinase [2] = assay: pATG13 levels of mutant KRas HCT-116 cells after treatment with ULK inhibitors in combination with trametinib (ELISA); format: cell-based, human; conditions: HCT-116 colon cancer cells, 250 nM trametinib, overnight, pS318-ATG13
Procedure: The following day, 10 μL of media containing trametinib or DMSO as a control was added to wells. […] A dose response of a test compound (0.6 μL per well) was added. DMSO (0.6 μL) was added to control wells. The plate was briefly shaken to mix wells and then incubated at 37° C. overnight. The next day, the media was aspirated and cells were washed with Dulbecco's Phosphate Buffered Saline (Gibco). Cells were lysed using MPER lysis buffer (Pierce, Rockford, Ill.) containing Halt Phosphatase and Protease Inhibitors (Pierce, Rockford, Ill.) and Phosphatase inhibitor cocktail 2 (Sigma, St. Louis, Mo.) at 4° C. for 10 minutes with shaking.
as §1

ULK2 kinase = target: T2, ULK2 kinase (Homo sapiens, UniProt Q8IYT8); assay: Biochemical assay for ULK2 (coupled pyruvate kinase/lactate dehydrogenase assay); conditions: 9.7 nM ULK2 (residues 1-306, GST and His tag), myelin basic protein, 1 mM ATP; read-out: ULK2.2
T2 construct: purchased Eurofins 14-772
T2 sequence (Q8IYT8 with tags, fused parts or gaps): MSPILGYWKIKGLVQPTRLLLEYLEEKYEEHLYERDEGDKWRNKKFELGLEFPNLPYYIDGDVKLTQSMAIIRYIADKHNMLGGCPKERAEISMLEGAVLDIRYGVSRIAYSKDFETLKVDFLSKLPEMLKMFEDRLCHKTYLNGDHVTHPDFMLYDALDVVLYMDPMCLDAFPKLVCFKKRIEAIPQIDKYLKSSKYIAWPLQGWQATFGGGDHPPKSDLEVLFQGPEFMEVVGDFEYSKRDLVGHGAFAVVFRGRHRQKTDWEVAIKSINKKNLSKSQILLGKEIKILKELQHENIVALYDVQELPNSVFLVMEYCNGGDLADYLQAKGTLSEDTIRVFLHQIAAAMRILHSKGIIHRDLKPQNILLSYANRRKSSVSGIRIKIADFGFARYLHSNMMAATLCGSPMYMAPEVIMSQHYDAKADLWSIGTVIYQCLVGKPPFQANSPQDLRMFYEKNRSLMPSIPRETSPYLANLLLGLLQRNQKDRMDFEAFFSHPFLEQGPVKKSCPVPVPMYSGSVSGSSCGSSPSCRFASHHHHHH
Procedure: Example 132. Biochemical Assay for ULK2 (SEQ. ID NO: 3)
Activity of ULK2 kinase was determined spectroscopically using a coupled pyruvate kinase/lactate dehydrogenase assay that continuously monitors the ATP hydrolysis-dependent oxidation of NADH (e.g., Schindler et al. Science (2000) 289: 1938-1942). Assays were conducted in 384-well plates (100 uL final volume) using 9.7 nM ULK2 (Eurofins CAT #14-772), 0.25 mg/mL myelin basic protein, 1.5 units pyruvate kinase, 2.1 units lactate dehydrogenase, 1 mM phosphoenol pyruvate, 0.28 mM NADH and 1 mM ATP in assay buffer (100 mM Tris, pH 7.5, 15 mM MgCl2, 0.5 mM DTT, 0.1% octyl-glucoside, 0.002% (w/v) BSA, and 0.002% Triton X-100). Inhibition of ULK2 was measured by adding serial diluted test compound (final assay concentration of 1% DMSO). A decrease in absorption at 340 nm was monitored continuously for 6 hours at 30° C. on a multi-mode microplate reader (BioTek). The reaction rate was calculated using the 2-3 h time frame. The reaction rate at each concentration of compound was converted to percent inhibition using controls (i.e. reaction with no test compound and reaction with a known inhibitor) and IC50 values were calculated by fitting a four-parameter sigmoidal curve to the data using Prism (GraphPad software).

Compound | IC50 (ULK1 kinase) [nM] | IC50 (ULK kinase [1]) [nM] | IC50 (ULK kinase [2]) [nM] | IC50 (ULK2 kinase) [nM]
CN1CCN(c2ccc(Nc3ncc(C(F)(F)F)c(NCCCN4CCCCC4=O)n3)c(C3CC3)c2)CC1 [Example 14] | 1 to 25 | 10 to 100 | 10 to 100 | 1 to 25
CCc1cc(N2CCN(C)CC2)ccc1Nc1ncc(C(F)(F)F)c(NCCCN2CCCOC2=O)n1 [Example 39] | 1 to 25 | 10 to 100 | 10 to 100 | 25 to 100
CN1CCN(c2ccc(Nc3ncc(C(F)(F)F)c(NCCCN4CCCOC4=O)n3)c(C3CC3)c2)CC1 [Example 41] | 1 to 25 | 10 to 100 | 10 to 100 | 25 to 100
CCc1cc(N2CCNCC2)ccc1Nc1ncc(C(F)(F)F)c(NCCCN2CCCOC2=O)n1 [Example 46] | 1 to 25 | 100 to 300 | 100 to 300 | 25 to 100
CCc1cc(N2CC3CCC(C2)N3C)ccc1Nc1ncc(C(F)(F)F)c(NCCCN2CCOCCC2=O)n1 [Example 74] | 1 to 25 | – | 10 to 100 | 1 to 25

Continued, values first:

IC50 (ULK1 kinase) [nM] | IC50 (ULK kinase [1]) [nM] | IC50 (ULK kinase [2]) [nM] | IC50 (ULK2 kinase) [nM] | Compound
1 to 25 | 100 to 300 | 10 to 100 | 25 to 100 | CN1CCN(c2ccc(Nc3ncc(C(F)(F)F)c(NCCCN4CCCOCC4=O)n3)c(C3CC3)c2)CC1 [Example 52]
– | 100 to 300 | 10 to 100 | 100 to 500 | CN1CCN(c2ccc(Nc3ncc(Cl)c(NCCCN4CCCOCC4=O)n3)c(C3CC3)c2)CC1 [Example 55]
1 to 25 | 10 to 100 | 10 to 100 | 25 to 100 | CN1CCN(c2ccc(Nc3ncc(C(F)(F)F)c(NCCCN4CCOCCC4=O)n3)c(C3CC3)c2)CC1 [Example 70]
1 to 25 | – | 10 to 100 | – | CCc1cc(N2CCN(C)CC2)ccc1Nc1ncc(Br)c(NCCCN2CCOCCC2=O)n1 [Example 76]
1 to 25 | 100 to 300 | 10 to 100 | 25 to 100 | CCc1cc(N2CCNCC2)ccc1Nc1ncc(C(F)(F)F)c(NCCCN2CCOCCC2=O)n1 [Example 84]
25 to 100 | 10 to 100 | 100 to 300 | – | CCc1cc(N2CCN(C)CC2)c(F)cc1Nc1ncc(C(F)(F)F)c(NCCCN2CCOCCC2=O)n1 [Example 86]
1 to 25 | 100 to 300 | – | 25 to 100 | O=C1OCCCN1CCCNc1nc(Nc2ccc(N3CCNCC3)cc2C2CC2)ncc1C(F)(F)F [Example 99]
